In PubChem BioAssay (NCI):
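Growth conditions: 96-well plates. Treatment: test compound, 48 hours, 5 concentrations. Analysis: linear interpolation between bracketing concentrations; unreached endpoints set to highest concentration. TGI denotes the concentration required for complete inhibition of growth.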

Legend:
Test in all cases: NCI-60 cell line screen, 48 h
NCI-H522 lung = system: NCI-H522 lung
UO-31 renal = system: UO-31 renal
HCT-116 colon = system: HCT-116 colon
SF-539 CNS = system: SF-539 CNS
MDA-N = system: MDA-N
MDA-MB-231 breast = system: MDA-MB-231 breast
U251 CNS = system: U251 CNS
NCI/ADR-RES ovarian = system: NCI/ADR-RES ovarian
SF-295 CNS = system: SF-295 CNS
SR leukemia = system: SR leukemia

Row | SMILES | TGI (NCI-H522 lung) [µM] | TGI (UO-31 renal) [µM] | TGI (HCT-116 colon) [µM] | TGI (SF-539 CNS) [µM] | TGI (MDA-N) [µM] | TGI (MDA-MB-231 breast) [µM] | TGI (U251 CNS) [µM] | TGI (NCI/ADR-RES ovarian) [µM] | TGI (SF-295 CNS) [µM] | TGI (SR leukemia) [µM]
1 | Cc1cc(N(CCC#N)CCC#N)ccc1/C(N=Nc1cccc([N+](=O)[O-])c1)=N/NC(=O)c1cc(Cl)ccc1O | 90.2 | 70.8 | > 100 | > 100 | > 100 | 53.5 | > 100 | > 100 | > 100 | 45
2 | CCC1CC2CN3CCc4c([nH]c5c(-c6c(OC)ccc7c8c([nH]c67)[C@]6(C(=O)OC)CC7CC(CC)C6N(CC8)C7)c(O)ccc45)[C@](C(=O)OC)(C2)C13 (stereo not given in full) | 31.6 | 27.1 | 25.7 | 39.7 | 24.6 | 47.1 | 25.7 | 53.9 | 36.1 | 45.4
3 | O=C1c2ccccc2CC12Cc1cc3c(cc1C2=O)CCC3 (stereo not given) | > 100 | > 100 | > 100 | > 100 | > 100 | > 100 | > 100 | > 100 | > 100 | > 100
4 | O=C(Oc1ccccc1)c1cc2cc(CCl)ccc2oc1=O | 24.6 | 68.1 | > 100 | > 100 | > 100 | 82 | > 100 | > 100 | 98.4 | > 100
5 | C/C(=N\Nc1ccc([N+](=O)[O-])cc1[N+](=O)[O-])c1ccc2ccccc2n1 | 55.7 | > 100 | > 100 | > 100 | > 100 | > 100 | > 100 | > 100 | > 100 | > 100
6 | COc1ccc(C2SCC(=O)N2c2ccc(-c3ccc(-n4c(-c5ccccc5)nc5ccccc5c4=O)cc3)cc2)cc1 (stereo not given) | > 100 | > 100 | > 100 | > 100 | > 100 | > 100 | > 100 | > 100 | > 100 | > 100
